The target of assay [1] is T1, Signal transducer and activator of transcription 5B (Homo sapiens, UniProt P51692).
T1 sequence (P51692 whole entry): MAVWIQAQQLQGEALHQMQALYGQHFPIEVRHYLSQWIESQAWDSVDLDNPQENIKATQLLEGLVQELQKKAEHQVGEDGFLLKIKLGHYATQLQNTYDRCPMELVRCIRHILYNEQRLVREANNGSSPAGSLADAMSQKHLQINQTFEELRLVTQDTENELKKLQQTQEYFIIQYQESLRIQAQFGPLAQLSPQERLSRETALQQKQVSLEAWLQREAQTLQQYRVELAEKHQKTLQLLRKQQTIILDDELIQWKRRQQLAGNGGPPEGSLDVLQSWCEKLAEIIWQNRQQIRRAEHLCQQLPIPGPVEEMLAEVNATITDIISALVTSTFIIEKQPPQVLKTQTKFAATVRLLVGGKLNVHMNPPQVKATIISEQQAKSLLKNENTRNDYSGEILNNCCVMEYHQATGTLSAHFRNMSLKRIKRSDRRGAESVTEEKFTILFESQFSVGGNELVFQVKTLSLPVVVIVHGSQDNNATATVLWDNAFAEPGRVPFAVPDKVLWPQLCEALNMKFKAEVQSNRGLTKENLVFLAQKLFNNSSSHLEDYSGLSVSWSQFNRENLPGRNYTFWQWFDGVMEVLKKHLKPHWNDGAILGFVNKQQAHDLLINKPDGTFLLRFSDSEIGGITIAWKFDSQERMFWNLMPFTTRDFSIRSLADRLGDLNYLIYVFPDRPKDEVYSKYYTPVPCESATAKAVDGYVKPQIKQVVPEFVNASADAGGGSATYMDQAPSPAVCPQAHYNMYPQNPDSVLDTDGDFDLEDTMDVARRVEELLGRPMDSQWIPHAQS
The experiment in a line: Displacement of 5-carboxyfluorescein-GY(PO3H2)LVLDKW from STAT5B SH2 domain (unknown origin) pretreated for 1 hr followed by fluorescent tracer addition after 1 hr by fluorescence polarization assay. On the technique in general: Polarisation of emitted light reports the rotation of a fluorescent probe.

The species named for another assay is Homo sapiens. The experiment in a line: Selectivity factor, ratio of IC50 for displacement of 5-carboxyfluorescein-GY(PO3H2)LVLDKW from STAT5A SH2 domain (unknown origin) to IC50 for displacement of 5-carboxyfluorescein-GY(PO3H2)LVLDKW from STAT5B SH2 domain (unknown origin).
The target of assay [2] is T2, Signal transducer and activator of transcription 5A (Homo sapiens, UniProt P42229).
T2 sequence (P42229 whole entry): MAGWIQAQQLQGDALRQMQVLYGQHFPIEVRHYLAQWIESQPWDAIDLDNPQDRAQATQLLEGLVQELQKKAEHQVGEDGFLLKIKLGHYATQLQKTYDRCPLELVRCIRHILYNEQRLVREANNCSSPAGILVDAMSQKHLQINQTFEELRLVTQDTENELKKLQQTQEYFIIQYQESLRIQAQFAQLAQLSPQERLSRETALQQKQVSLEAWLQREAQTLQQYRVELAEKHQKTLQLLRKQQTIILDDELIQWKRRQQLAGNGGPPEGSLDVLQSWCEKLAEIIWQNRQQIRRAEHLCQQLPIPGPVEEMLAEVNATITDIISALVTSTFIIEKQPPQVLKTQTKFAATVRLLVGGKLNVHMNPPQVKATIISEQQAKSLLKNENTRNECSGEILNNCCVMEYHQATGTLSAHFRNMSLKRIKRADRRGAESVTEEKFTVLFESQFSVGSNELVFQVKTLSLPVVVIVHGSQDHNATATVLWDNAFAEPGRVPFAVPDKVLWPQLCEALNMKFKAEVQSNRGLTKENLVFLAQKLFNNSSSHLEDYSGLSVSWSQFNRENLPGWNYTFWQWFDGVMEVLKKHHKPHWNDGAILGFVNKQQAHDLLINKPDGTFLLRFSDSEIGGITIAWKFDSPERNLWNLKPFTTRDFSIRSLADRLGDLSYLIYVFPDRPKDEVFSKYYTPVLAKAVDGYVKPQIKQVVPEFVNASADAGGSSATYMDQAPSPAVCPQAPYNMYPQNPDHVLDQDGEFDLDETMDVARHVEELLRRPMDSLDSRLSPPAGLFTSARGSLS
The assay is described as follows: Displacement of 5-carboxyfluorescein-GY(PO3H2)LVLDKW from STAT5A SH2 domain (unknown origin) pretreated for 1 hr followed by fluorescent tracer addition after 1 hr by fluorescence polarization assay.

Our source for the IC50 and Ratio IC50 values is ChEMBL document CHEMBL4052650, “Halogen-substituted catechol bisphosphates are potent and selective inhibitors of the transcription factor STAT5b” (Bioorg Med Chem, 2017).

The term IC50 denotes the concentration that gives 50% inhibition. Consider `O=C(COc1ccc(C(=O)Nc2ccc(Br)cc2)cc1)NCc1ccc(OP(=O)(O)O)c(OP(=O)(O)O)c1`, for which the IC50 in assay [1] was found to be 390 nM; in assay [2], 8.6 µM. Further, the Ratio IC50 in the assay filed under Homo sapiens stood at 22.

With `O=C(COc1ccc(C(=O)Nc2cccc(Cl)c2)cc1)NCc1ccc(OP(=O)(O)O)c(OP(=O)(O)O)c1`, the half-maximal inhibitory concentration (IC50) was 460 nM in assay [1] and 9.1 µM in assay [2]. Besides, in the assay listed under Homo sapiens, the Ratio IC50 is 20.

Consider `O=C(COc1ccc2cc(C(=O)Nc3cccc(F)c3)ccc2c1)NCc1ccc(OP(=O)(O)O)c(OP(=O)(O)O)c1`, for which the values for the half-maximal inhibitory concentration (IC50) in assay [1] and in assay [2] were 234 nM and 8.4 µM, respectively. The Ratio IC50 in the assay listed under Homo sapiens was determined as 36.

Take `O=C(COc1ccc2cc(C(=O)Nc3ccc(Br)cc3)ccc2c1)NCc1ccc(OP(=O)(O)O)c(OP(=O)(O)O)c1`: the results for the concentration for half-maximal inhibition (IC50) in assay [1] and in assay [2] were 240 nM and 7.6 µM, respectively. The Ratio IC50 in the assay filed under Homo sapiens was 32.

On to `O=C(COc1ccc2cc(C(=O)Nc3ccc(F)cc3)ccc2c1)NCc1ccc(OP(=O)(O)O)c(OP(=O)(O)O)c1`, for which the half-inhibitory concentration (IC50) was 220 nM in assay [1] and 7.2 µM in assay [2]. Also, the Ratio IC50 in the assay listed under Homo sapiens is 33.

Consider `O=C(COc1ccc(C(=O)Nc2ccccc2)cc1)NCc1ccc(OP(=O)(O)O)c(OP(=O)(O)O)c1`, for which the values for the IC50 in assay [1] and in assay [2] were 280 nM and 9.7 µM, respectively. For the same molecule, the Ratio IC50 in the assay filed under Homo sapiens was found to be 35.

As to `O=C(COc1ccc(C(=O)Nc2ccc(F)cc2)cc1)NCc1ccc(OP(=O)(O)O)c(OP(=O)(O)O)c1`, the IC50 amounted to 350 nM in assay [1] and 8.3 µM in assay [2]. Besides, the Ratio IC50 in the assay filed under Homo sapiens came out at 24.

For the molecule `O=C(COc1ccc2cc(C(=O)Nc3cccc(Br)c3)ccc2c1)NCc1ccc(OP(=O)(O)O)c(OP(=O)(O)O)c1`, the IC50 was determined as 290 nM in assay [1] and 10.6 µM in assay [2]. In the assay filed under Homo sapiens, the Ratio IC50 came out at 37.

`O=C(COc1ccc(C(=O)Nc2cccc(Br)c2)cc1)NCc1ccc(OP(=O)(O)O)c(OP(=O)(O)O)c1`: the IC50 was found to be 660 nM in assay [1] and 10.5 µM in assay [2]. Moreover, in the assay filed under Homo sapiens, the Ratio IC50 was 16.

For the molecule `O=C(COc1ccc(C(=O)Nc2cccc(F)c2)cc1)NCc1ccc(OP(=O)(O)O)c(OP(=O)(O)O)c1`, the IC50 in assay [1] was 620 nM; in assay [2] it was 11.9 µM. Also, the Ratio IC50 in the assay filed under Homo sapiens was 19.

For the molecule `O=C(COc1ccc(C(=O)Nc2ccc(Cl)cc2)cc1)NCc1ccc(OP(=O)(O)O)c(OP(=O)(O)O)c1`, the IC50 is 330 nM in assay [1] and 7.4 µM in assay [2]. For the same molecule, the Ratio IC50 in the assay listed under Homo sapiens worked out at 22.

For `O=C(COc1ccc2cc(C(=O)Nc3ccc(Cl)cc3)ccc2c1)NCc1ccc(OP(=O)(O)O)c(OP(=O)(O)O)c1`, the IC50 in assay [1] stood at 270 nM; in assay [2], 8.9 µM. In addition, the Ratio IC50 in the assay listed under Homo sapiens was 33.

Consider `O=C(COc1ccc2cc(C(=O)Nc3cccc(Cl)c3)ccc2c1)NCc1ccc(OP(=O)(O)O)c(OP(=O)(O)O)c1`, for which the IC50 in assay [1] was found to be 260 nM; in assay [2], 7.3 µM. The Ratio IC50 in the assay listed under Homo sapiens came out at 28.
